{
  "source": "patent US7482468B2",
  "about": "“Imidazole and benzimidazole derivatives useful as histamine H3 antagonists” (Schering Corporation, priority 2005, dated 2009)",
  "target": "H3 receptors (Cavia porcellus, UniProt Q9JI35)",
  "sequence (Q9JI35 whole entry)": "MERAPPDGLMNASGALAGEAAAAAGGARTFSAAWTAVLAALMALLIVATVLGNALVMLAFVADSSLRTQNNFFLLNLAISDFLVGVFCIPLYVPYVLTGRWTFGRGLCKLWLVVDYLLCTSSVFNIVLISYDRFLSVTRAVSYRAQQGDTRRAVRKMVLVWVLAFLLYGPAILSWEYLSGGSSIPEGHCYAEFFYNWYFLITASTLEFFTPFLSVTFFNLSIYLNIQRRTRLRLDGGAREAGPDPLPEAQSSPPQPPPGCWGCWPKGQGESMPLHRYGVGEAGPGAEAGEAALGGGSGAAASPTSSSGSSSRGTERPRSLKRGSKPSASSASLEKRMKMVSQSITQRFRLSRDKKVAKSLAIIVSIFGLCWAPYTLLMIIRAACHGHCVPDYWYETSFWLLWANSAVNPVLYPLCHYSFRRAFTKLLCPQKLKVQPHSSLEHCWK",
  "test": "biochemical",
  "procedure": "General Procedure for H3-Receptor Binding Assay\nThe source of the H3 receptors in this experiment was guinea pig brain. The animals weighed 400-600 g. The brain tissue was homogenized with a solution of 50 mM Tris, pH 7.5. The final concentration of tissue in the homogenization buffer was 10% w/v. The homogenates were centrifuged at 1,000×g for 10 min. in order to remove clumps of tissue and debris. The resulting supernatants were then centrifuged at 50,000×g for 20 min. in order to sediment the membranes, which were next washed three times in homogenization buffer (50,000×g for 20 min. each). The membranes were frozen and stored at −70° C. until needed.\nAll compounds to be tested were dissolved in DMSO and then diluted into the binding buffer (50 mM Tris, pH 7.5) such that the final concentration was 2 μg/ml with 0.1% DMSO. Membranes were then added (400 μg of protein) to the reaction tubes. The reaction was started by the addition of 3 nM [^3H]R-α-methyl histamine (8.8 Ci/mmol) or 3 nM [^3H]N^α-methyl histamine (80 Ci/mmol) and continued under incubation at 30° C. for 30 min. Bound ligand was separated from unbound ligand by filtration, and the amount of radioactive ligand bound to the membranes was quantitated by liquid scintillation spectrometry.",
  "data": [
    {"smiles": "Fc1ccc2c(c1)nc(-c1ccccn1)n2-c1ccc(OCCCN2CCCCC2)cc1", "note": "[Example 1EE]", "values": [
      {"measurement": "Ki", "value": 1, "unit": "nM"}
    ]}
  ]
}
